Several values for one entry are separate records, joined by “and”; a condition that tells them apart may be missing. Identical values can stand only once. Entries after “also recorded” stand apart in the source; their conditions may differ.
Columns and labels:
[1] = system: Escherichia coli; assay: E. coli intramammary challenge in lactating dairy cows, CATH2 and analogs, Example 2; type: in vivo, Holstein cows; conditions: for overall protection against mastitis following IMM challenge with E. coli / intramammary infection observed / animals meeting criteria for clinical mastitis: 50 mg/10 mL; for intramammary infection observed: 4 treatments prior to challenge, vehicle 100%; for animals meeting criteria for clinical mastitis: 4 treatments twice daily for 2 days prior to challenge, vehicle 100.0%, FIG. 9; for milk concentrations of BSA, milk haptoglobin, milk amyloid A, IL-1 beta, IL-6, IL-8, IL-10 and TNFα: FIGS. 13-20
Description: The objective of this study was to evaluate the efficacy of Cathelicidin-2 peptide analogs for reduction of incidence of clinical mastitis and severity of infection following Escherichia coli intramammary (IMM) infusion in lactating dairy cows. Healthy Holstein cows in their second or third lactation were selected based on culture negative results for mastitis pathogens and low somatic cell counts≤200,000. Enrolled animals were randomly assigned to treatment. Cows were commingled, housed and fed according to standard site procedures, and fitted with sensors to monitor activity. Cows were milked twice daily at regular intervals. The assigned treatment was administered following am and pm milkings starting 2 days prior to challenge. Four total treatments and the challenge were administered in the left front quarter. Treatment was administered twice daily for 2 days prior to challenge. The E. coli challenge material was administered to the treated quarter on the morning of Day 0 of study. The treatment regimen was designed to evaluate efficacy for prevention of the disease. All peptides were dosed at 50 mg/10 mL per dose. Milk samples were collected for analysis at 6-hour intervals on Day 0, and at each morning's milking from Day 1 through Day 7, and on Days 11 and 14.

[2] = system: primary bovine mammary epithelial cells (pMEC); assay: Cytokine production in primary bovine mammary epithelial cells, unstimulated or LPS/MPLA (TLR 4 agonist) stimulated; type: cell-based
Description: (§1) Chicken CATH2 is a host defense peptide that is naturally expressed in chicken heterophils and several tissues. […] LPS and MPLA serve as potent Toll-like Receptor 4 (TLR 4) agonists in this assay and induce high levels of proinflammatory cytokines such as interleukin 6 (IL-6) and tumor necrosis factor alpha (TNFα).

[3] = system: S. aureus; assay: S. aureus challenge study, treatment at onset of clinical mastitis, Example 3; type: in vivo, Holstein or Holstein Crossbred cattle; conditions: 6 doses at 50 mg/10 mL intramammary
Description: Bovine mastitis specific bacterial pathogens were used to experimentally infect periparturient cows and first lactation heifer Holstein or Holstein Crossbred cattle to test the efficacy of the CATH2 peptide in the treatment and prevention of clinical mastitis.
A frozen stock of S. aureus was used to prepare a suspension of approximately 600 colony forming units in 5 mL. Standard plate counts were conducted on the challenge suspension immediately after preparation and after all animals were challenged. Details of each challenge inoculum preparation including concentration (CFU/5 mL) for pre- and post-challenge preparation were documented and confirmed to be in range.
Quarters that were bacteriologically positive for S. aureus were regarded as infected. Clinical mastitis was defined as a challenged quarter having a clinical score of at least 1 for either milk appearance or udder evaluation with an isolation of S. aureus (≥100 cfu/mL) from the quarter within 2 days of clinical signs. Sub-clinical chronic mastitis was defined as isolation of S. aureus (≥100 cfu/mL) from a challenged quarter and elevated SCC (>200,000 cells/mL) in the absence of abnormal milk or udder score.
All treatments were administered in accordance with the randomization provided by the biometrician into the challenged quarter (left front) of the udder. Treatments were administered upon onset of clinical mastitis. In this model, onset is approximately 1 to 3 days post-challenge. Upon confirmation of clinical mastitis, treatments were administered at the next milking. Treatments were administered with a 10 mL syringe via intramammary infusion and recorded.
Each animal with clinical mastitis received a total of 6 doses at 50 mg/10 mL by intramammary infusion administered twice daily for 3 consecutive days.

[4] = system: bacteria; assay: Modified minimal bactericidal concentration assay in varying concentrations of milk; type: cell-based; conditions: as little as 10% whole and skim milk
Description: The CATH2 peptide has antibacterial activity where it causes membrane disruption and lysis of the bacterial cell. The peptide also has cytotoxic effects on eukaryotic cells at high concentrations due the high positive charge, +8, and its ability to integrate in the cell membrane, resulting in membrane disruption. To further understand the behavior of the peptide in the context of the mammary gland, the inventors investigated the antibacterial activity and cytotoxicity of the peptide in the presence of milk. […] This finding led the inventors to investigate the impact of milk protein binding on peptide activity.

[5] = system: Streptococcus uberis; assay: S. uberis challenge study, Example 4; type: in vivo, cattle
[6] = system: bovine peripheral blood mononuclear cells (PBMCs); assay: Cytokine production in bovine PBMCs after TLR 4 agonist stimulation; type: cell-based; conditions: LPS or MPLA stimulation
Description: as §1

[7] = system: E. coli challenge strain; assay: Antibacterial activity of 2 mg peptide in varying milk concentrations, 2-minute pre-incubation; type: cell-based
Description: In a follow up assay to better understand the impact of milk protein binding on antibacterial activity that may be seen in vivo, a ratio of peptide to milk protein was estimated. In this assay varying concentrations of milk in bacterial growth medium was incubated with 2 mg of peptide. Two minutes after adding peptide to the tube, 500 colony forming units (CFU)/mL of the E. coli challenge strain was added. The timing was purposeful for understanding how quickly the peptide can be completely bound. The low inoculum was also chosen intentionally to more closely replicate the dose provided in the in vivo challenge model, thereby providing a worst-case scenario on exposure to free peptide. […] The quantity of milk protein was enough to bind 2 mg of CATH2 peptide. The bacterial growth was evaluated at 1, 2, 4, 6, and 24 hours post inoculation. […] The lower level of detection was 10 CFU/mL and the upper level of quantification measured for the purposes of this assay was set to 1.5×10^5 CFU/mL.

[8] = Transcriptomics after treatment alone in the lactating cow model; type: in vivo; conditions: 100 mg/10 mL, 12 hour post administration, lactating cows
Description: Prior to challenge in the lactating cow model, there is a consistent treatment effect of CATH2 alone indicating a modulation of the animal immune response. In the lactating cow model, these shifts lead to an enhanced response in clearance of the E. coli and resolution of inflammation as compared to untreated controls.

[9] = Dry off therapy: transcriptomics of udder secretions in healthy dry cows, Example 5; type: in vivo, Holstein cattle; conditions: 400 mg/10 mL, 1-day post administration
Description: In an additional study, pregnant multiparous Holstein cattle were treated with a single dose of CATH2 at approximately 60 days prior to expected calving dates for this group of animals by intramammary infusion following milking. These animals were considered to be entering the so-called dry period in which animals are no longer milked until post-partition. The objective of this study was to understand the immunomodulatory activity of varying doses of CATH2 administered by intramammary infusion in healthy multiparous cows at dry off.
Udder secretion samples were collected 1, 2, and 7 days post administration. Samples were also collected from the neighboring Right Rear quarter as an untreated in animal control of varying immunological responses. The samples were processed for transcriptomics analysis to determine the healthy animal response to treatment alone.

[10] = system: Escherichia coli; assay: Lactating cow E. coli mastitis challenge model, Example 1; type: in vivo, Holstein Crossbred Cattle
Description: A frozen stock of E. coli was used to prepare a suspension of approximately 500 colony forming units/10 mL using standard site procedures. Standard plate counts were conducted on the challenge suspension immediately after preparation and after all animals were challenged. Details of the challenge inoculum preparation including concentration (CFU/10 mL) for the pre- and post-challenge preparation were documented and confirmed to be in range. Locally sourced healthy adult female Holstein Crossbred Cattle in the first, second, or third lactation were enrolled into the studies. Animals challenged with E. coli were susceptible to E. coli as determined by vaccination records and low serum titer to E. coli. Animals enrolled were confirmed to be between 14 and 35 days post-calving at enrollment. […] Following challenge quarters bacteriologically positive for E. coli were regarded as infected. Clinical mastitis was defined as a challenged quarter having a clinical score of at least 1 for either milk appearance or udder evaluation and an isolation of E. coli from the challenged quarter. Subclinical mastitis was defined as isolation of E. coli from the challenged quarter and elevated SSC in the absence of abnormal milk or udder score. This isolate elicits a moderate case of E. coli mastitis with body temperature increase in the first 24 hours post challenge and consistent local signs on udder appearance and milk quality.
In this study, animals were treated with 50 mg/10 mL at 12-hour intervals starting 12 hours prior to E. coli challenge. A total of 4 doses were administered by intramammary infusion. Dose administration concluded 24 hours after challenge. The objective of the study was to evaluate the potential for CATH2 to reduce the severity of clinical mastitis by modulation of the host immune response. The dose regimen was designed to ensure sufficient exposure in the absence of understanding the duration of the immunological effect driven by the peptide in cattle.
The experimental design was a randomized design with a one-way treatment structure replicated in 3 batches. […] Milk samples were collected for transcriptomic analysis and cytokine profiles in the whey at 12 hours post-challenge. Differential quantitative milk leukocyte counts were collected for 7 days post challenge.
One hundred fifty bovine milk samples were obtained in 3 separate cohorts and processed to whey. The whey samples were analyzed for total protein levels and the levels of 8 total cytokines using the developed MSD whey U-Plex method.

## RCGRFLRKIRPFRRKVTITCQ [Analog 2, CATH2 1-21 analog]
[1]
  overall protection against mastitis following IMM challenge with E. coli: Relatively limited protection against mastitis
  intramammary infection observed: 94.74%
  animals meeting criteria for clinical mastitis: 95.74%
  milk concentrations of BSA, milk haptoglobin, milk amyloid A, IL-1 beta, IL-6, IL-8, IL-10 and TNFα: modulation on acute phase proteins and key cytokines

## RFGRFLRKIRRFRPKVTITIQ [CATH2, truncated 1-21 amino acid L-form of chicken cathelicidin 2 peptide]
[2]; LPS or MPLA (TLR 4 agonist) stimulation, FIG. 1
  proinflammatory cytokines (IL-6, TNFα) upon LPS or MPLA stimulation: dose-dependent inhibition of proinflammatory cytokines
[2]; varying concentrations of the peptide, unstimulated
  proinflammatory cytokines in healthy unstimulated bovine mammary epithelial cells: minor increase in proinflammatory cytokines
[3]
  animals showing a positive response to treatment: 55.6%
  severity of disease: reduction in bacterial counts and reduced somatic cell counts
[3]; twice daily for 3 days
  animals achieving clinical cure: 33.3%
[1]
  overall protection against mastitis following IMM challenge with E. coli: best protection against mastitis
  intramammary infection observed: 52.94%
  animals meeting criteria for clinical mastitis: 47.06%
  milk concentrations of BSA, milk haptoglobin, milk amyloid A, IL-1 beta, IL-6, IL-8, IL-10 and TNFα: lowest
[1]; Day 6, vehicle 0%
  cows with normal challenged quarter: 41.48%
[1]; vehicle 80.0%, FIG. 12
  cows demonstrating fever: 41.2%
[1]; vehicle 5.5 h
  duration of fever: 2.4 h
[1]; vehicle >4.0
  peak E. coli counts from the challenged quarter: < 1.5 log10 CFU/mL
[1]; vs vehicle control, FIG. 10
  bacterial load post challenge: greatest reduction in the bacterial load
[1]; vs vehicle control, FIG. 13
  BSA level in the milk: lowest level of BSA in the milk
[4]
  peptide antibacterial activity in the presence of milk: completely inhibited
[5]; 50 mg/10 mL, 2 doses prior to challenge or 4 doses spanning challenge, FIG. 21
  animals meeting criteria for removal from study (Kaplan Meier analysis): reduction in the number of animals meeting criteria for removal of study
[5]; 50 mg/10 mL, both regimens, FIG. 22
  incidence of clinical mastitis: reduced incidence of clinical mastitis
[5]; 4 doses at -12, 0, 12, 24 hours
  progression of clinical mastitis, 4 dose regimen vs 2 dose regimen: greater capacity to inhibit the progression of clinical mastitis
[6]
  proinflammatory cytokines (IL-6, TNFα) in PBMCs: effectively inhibits these proinflammatory cytokines
[7]
  antibacterial activity in 10% and 20% milk: some inhibition of bacterial growth
[7]; 2-minute incubation, 500 CFU/mL E. coli
  antibacterial activity in 30% whole milk: completely block the antibacterial activity
[7]; E. coli below level of detection (10 CFU/mL) at 1, 2, 4, 6, 24 h
  antibacterial activity in bacterial medium alone: completely bactericidal
[8]
  gene expression in milk: increased expression of: CCL24, CXCL2, IL1RAP, CXCR1, and CXCR2
[9]
  gene expression in udder secretions: increased expression of: CCL24, CXCL2, IL1RAP, CXCR1, and CXCR2
[10]; 50 mg/10 mL intramammary, 4 doses at -12, 0, 12, 24 h, saline 95.65%
  animals showing signs of clinical mastitis: 8.70%
[10]; 50 mg/10 mL intramammary, 4 doses, 20 of 23 animals
  animals never positive for intramammary infection: 86.96% and 87.0%
[10]; 50 mg/10 mL intramammary, 4 doses, 21 out of 23 animals
  animals that never met criteria for clinical mastitis: 91.3%
[10]; 14-day study, saline 20 of 23
  animals qualifying for subclinical mastitis: None
[10]; 6 hours post challenge, FIG. 6
  somatic cell count (SCC): notable increase in the SCC
[10]; 12 hr post-challenge, vs saline
  milk whey cytokines (IL-1B, IL-6, IL-8/CXCL8, IL-10, TNFα): significantly lower levels of key inflammatory cytokines; also recorded: reduction in peak cytokine responses
[10]; AfiLab in-line system, each milking, FIG. 7
  milk yield: maintained high milk yields
[10]; all time points after Day 0 at 6 hours post-challenge, FIG. 8
  BSA levels in the milk vs Saline control: statistically significantly reduced BSA levels
[10]; bovine, in vivo
  time of SCC return to baseline: ≤ 24 hours post challenge
[10]; first 6 days, FIG. 4
  bacterial load in the milk: significant inhibition of E. coli ability to establish infection
[10]; milk from challenged quarter
  BSA return to baseline levels: ≤ 3 Study Day
[10]; rectal temperature, 22 of 23 animals
  animals not showing an increase in body temperature: 95.7%

## RFGRWLRKIRRYRGKVTITIQ [Analog 1, CATH2 1-21 analog]
[1]
  overall protection against mastitis following IMM challenge with E. coli: Relatively limited protection against mastitis
  intramammary infection observed: 94.74%
  animals meeting criteria for clinical mastitis: 78.95%
  milk concentrations of BSA, milk haptoglobin, milk amyloid A, IL-1 beta, IL-6, IL-8, IL-10 and TNFα: modulation on acute phase proteins and key cytokines

— patent US20240342242A1, “COMPOSITIONS AND METHODS FOR TREATING MASTITIS” (Zoetis Services LLC, priority 2021, published 2024)
